Data from US8367835B2, “Cyclic amine-1-carboxylic acid ester derivative and pharmaceutical composition containing the same” (Dainippon Sumitomo Pharma Co., Ltd., priority 2008, dated 2013).

Each compound was assayed on mechanical hyperalgesia in a neuropathic pain model (rat Chung model) (assay: Analgesic effect: von Frey filament test using rat Chung model, transdermal administration). Details: 0.1% formulation applied transdermally to plantar surface of left hindlimb once a day for 2 weeks; measured on the day after last administration; pre-administration value = 100%.
Format: in vivo
Method: The present test is to measure the analgesic effect based on the improvement level of the mechanical hyperalgesia in a neuropathic pain model as the indicator by transdermally administering the compound of the present invention and was carried out in accordance with the method of Kim and Chung [Pain, 50, 355-363 (1992)] or the method of Tsuda et al. [Nature, 424, 778-783, 2003].
Specifically, using Jcl: Wistar male rat (7 to 9 rats/group, 5 weeks of age at the time of surgery), spinal nerves were injured to induce hyperalgesia and the withdrawal threshold was measured using the von Frey filament. In the surgery, under Pentobarbital anesthesia, the left L5 spinal nerve was exposed, ligated near the spinal cord using a silk suture (5-0) and transected just peripheral to the ligation. After suturing the incision and keeping the rats for 2 weeks, the rats were subjected to the von Frey filament test. The measurement of the mechanical hyperalgesia was carried out by applying von Frey filaments (1.0, 2.0, 4.0, 8.0, 15.0 g) to the plantar surface of the left hindlimb, and the filament intensity at which 50% or higher withdrawal behavior was observed was defined as the withdrawal threshold.
After dissolving the test compounds in a mixture of Tween 80 and ethanol, the obtained solution was mixed with a hydrophilic ointment to prepare a formulation having a concentration of 0.1%. The withdrawal threshold before administering the test compound was measured to define the pre-administration value (100%). Thereafter, once a day, for 2 weeks, the formulation having a concentration of 0.1% was transdermally administered (applied) to the plantar surface of the left hindlimb, the von Frey filament test was carried out on the following day of the last administration to measure the post-administration value. Further, the same formulation as above but free of the test compound was prepared as a vehicle control and the same test was carried out.
The analgesic effect is a relative ratio when a test compound pre-administration value calculated using the following numerical formula is 100%. The pre-administration withdrawal threshold was 3.3±0.1 g (119 cases) (the withdrawal threshold of sham-operated rat was 10 to 15 g). %=(test compound post-administration withdrawal threshold value/pre-administration withdrawal threshold value)×100

Row | SMILES | % to pre-administration value (withdrawal threshold)
1 | CCC1(CC)CCC(OC(=O)N2CC(C(=O)NCc3ccc(O)c(OC)c3)C2)CC1 [Example 14, 4,4-diethylcyclohexyl 3-(4-hydroxy-3-methoxybenzylcarbamoyl)-azetidine-1-carboxylate] | 241%
2 | CC[C@H]1CC[C@@H](OC(=O)N2CCC(C(=O)NCc3ccc(O)c(OC)c3)CC2)CC1 [Example 1, cis-4-ethylcyclohexyl 4-(4-hydroxy-3-methoxybenzylcarbamoyl)-piperidine-1-carboxylate] | 220%
3 | COc1cc(CNC(=O)C2CCN(C(=O)O[C@@H]3CCC[C@@H](C)C3)CC2)ccc1O [Example 35, (1R,3R)-3-methylcyclohexyl 4-(4-hydroxy-3-methoxybenzylcarbamoyl)-piperidine-1-carboxylate] | 183%
4 | COc1cc(CNC(=O)C2CCN(C(=O)O[C@H]3CCCC[C@H]3C)CC2)ccc1O [Example 38, (1S,2R)-2-methylcyclohexyl 4-(4-hydroxy-3-methoxybenzylcarbamoyl)-piperidine-1-carboxylate] | 243%

These compounds were tested against T1, TRPV1 (Rattus norvegicus, UniProt O35433) (assay: TRPV1 agonist activity by intracellular calcium level (FLIPR method)). Details: 1 μM; rat dorsal root ganglion primary culture cells; read-out: Value (%) when fluorescence intensity for capsaicin (1 μM) is 100%.
T1 construct: using cultured rat dorsal root ganglion cells which express TRPV1 abundantly; endogenous in cells; host or cells: primary culture of dorsal root ganglion cells from 7 day old Wistar rat
Format: cell-based
Description: The test is to measure the elevation of intracellular calcium level as the indicator of TRPV1 agonist activity of a test compound using cultured rat dorsal root ganglion cells which express TRPV1 abundantly, and carried out in accordance with the method of Jerman et al. (Jerman, J. C. et al., Comparison of effects of anandamide at recombinant and endogenous rat vanilloid receptors. Br J Anaesth, 2002. 89(6): p. 882-7). More specifically, the dorsal root ganglion was removed from a 7 day old Wistar rat, and the cells were isolated by collagenase-trypsin treatment. Subsequently, the primary cells was cultured in a CO2 incubator controlled at 5% CO2 and 37° C. for 2 days. The culture medium used was Neurobasal™ medium supplemented with L-glutamine, nerve growth factor, N-2-Supplement, Penicillin-Streptomycin, 5-Fluoro-2′-deoxyuridine (culture day 1 only) were added to.
FLIPR^TETRA system (Molecular Devices Corp.) was used to measure the intracellular calcium concentration. As an indicator of TRPV1 agonistic activity, the fluorescence intensity elevation was monitored when a test compound is applied to the rat dorsal root ganglion primary culture cells loaded with a calcium-sensitive fluorescent reagent.

T1 sequence (O35433 whole entry): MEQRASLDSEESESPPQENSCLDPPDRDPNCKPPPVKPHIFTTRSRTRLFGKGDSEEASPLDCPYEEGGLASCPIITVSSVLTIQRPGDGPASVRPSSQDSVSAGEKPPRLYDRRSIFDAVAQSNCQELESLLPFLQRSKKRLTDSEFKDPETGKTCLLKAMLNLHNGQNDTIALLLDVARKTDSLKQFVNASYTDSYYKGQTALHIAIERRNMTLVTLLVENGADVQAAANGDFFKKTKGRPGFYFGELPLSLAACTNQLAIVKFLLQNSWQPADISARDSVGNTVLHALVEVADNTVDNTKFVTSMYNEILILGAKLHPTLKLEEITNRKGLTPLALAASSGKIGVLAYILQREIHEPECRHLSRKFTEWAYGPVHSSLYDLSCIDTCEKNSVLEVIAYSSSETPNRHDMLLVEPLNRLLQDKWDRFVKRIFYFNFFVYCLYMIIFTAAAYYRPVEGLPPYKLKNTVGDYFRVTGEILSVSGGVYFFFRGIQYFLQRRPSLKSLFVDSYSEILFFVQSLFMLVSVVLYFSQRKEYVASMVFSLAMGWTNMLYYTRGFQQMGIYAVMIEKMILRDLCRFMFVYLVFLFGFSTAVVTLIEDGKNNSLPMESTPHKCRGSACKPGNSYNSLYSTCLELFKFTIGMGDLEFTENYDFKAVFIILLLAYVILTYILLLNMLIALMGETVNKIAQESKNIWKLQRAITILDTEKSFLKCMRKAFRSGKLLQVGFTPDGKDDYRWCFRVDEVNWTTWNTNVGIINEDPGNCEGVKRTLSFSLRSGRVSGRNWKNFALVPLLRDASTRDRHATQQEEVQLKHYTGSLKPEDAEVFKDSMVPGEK

Row | Emax at 1 µM | SMILES
5 | 78% | CC[C@H]1CC[C@@H](OC(=O)N2CC[C@@H](C(=O)NCc3ccc(O)c(OC)c3)C2)CC1 [Example 32]
6 | 78% | CCC1(CC)CCC(OC(=O)N2CC(C(=O)NCc3ccc(O)c(OC)c3)C2)CC1 [Example 14, 4,4-diethylcyclohexyl 3-(4-hydroxy-3-methoxybenzylcarbamoyl)-azetidine-1-carboxylate]
7 | 85% | COc1cc(CNC(=O)C2CN(C(=O)O[C@H]3C[C@H](C)CC[C@H]3C(C)C)C2)ccc1O [Example 21]
8 | 86% | COc1cc(CNC(=O)C2CN(C(=O)O[C@H]3CCC[C@H](C)C3)C2)ccc1O [Example 18]
9 | 82% | C=C(C)[C@@H]1CC[C@@H](C)C[C@H]1OC(=O)N1CC(C(=O)NCc2ccc(O)c(OC)c2)C1 [Example 26, (1R,2S,5R)-2-isopropenyl-5-methylcyclohexyl 3-(4-hydroxy-3-methoxybenzylcarbamoyl)-azetidine-1-carboxylate]
10 | 68% | COc1cc(CNC(=O)C2CN(C(=O)Oc3ccccc3C3CCCC3)C2)ccc1O [Example 46, 2-cyclopentylphenyl 3-(4-hydroxy-3-methoxybenzylcarbamoyl)-azetidine-1-carboxylate]
11 | 83% | COc1cc(CNC(=O)C2CCN(C(=O)Oc3ccc(C(C)C)cc3)CC2)ccc1O [Example 44]
12 | 77% | CCCC[C@H]1CC[C@H](OC(=O)N2CC(C(=O)NCc3ccc(O)c(OC)c3)C2)CC1 [Example 23]
13 | 73% | COc1cc(CNC(=O)C2CN(C(=O)O[C@@H]3C[C@H](C)CC[C@H]3C(C)C)C2)ccc1O [Example 20]
14 | 72% | COc1cc(CNC(=O)C2CCN(C(=O)Oc3ccccc3C3CCCC3)CC2)ccc1O [Example 42]
15 | 80% | COc1cc(CNC(=O)C2CCN(C(=O)O[C@H]3CC[C@H](C(C)(C)C)CC3)CC2)ccc1O [Example 6]
16 | 91% | COc1cc(CNC(=O)C2CCN(C(=O)OC3CCCCCC3)CC2)ccc1O [Example 39]
17 | 86% | COc1cc(CNC(=O)C2CCN(C(=O)O[C@@H]3CCC[C@@H](C)C3)CC2)ccc1O [Example 35, (1R,3R)-3-methylcyclohexyl 4-(4-hydroxy-3-methoxybenzylcarbamoyl)-piperidine-1-carboxylate]
18 | 90% | CCC1(CC)CCC(OC(=O)N2CCC(C(=O)NCc3ccc(O)c(OC)c3)CC2)CC1 [Example 7]
19 | 86% | COc1cc(CNC(=O)[C@H]2CCN(C(=O)OC3CCC(C)(C)CC3)C2)ccc1O [Example 27, 4,4-dimethylcyclohexyl (S)-3-(4-hydroxy-3-methoxybenzylcarbamoyl)-pyrrolidine-1-carboxylate]
20 | 80% | CCCC[C@H]1CC[C@@H](OC(=O)N2CC(C(=O)NCc3ccc(O)c(OC)c3)C2)CC1 [Example 22]
21 | 77% | COc1cc(CNC(=O)C2CCN(C(=O)OC3CCCCC3)CC2)ccc1O [Example 48, cyclohexyl 4-(4-hydroxy-3-methoxybenzylcarbamoyl)-piperidine-1-carboxylate]
22 | 78% | COc1cc(CNC(=O)[C@H]2CCN(C(=O)O[C@H]3CC[C@@H](C(C)(C)C)CC3)C2)ccc1O [Example 30]
23 | 84% | COc1cc(CNC(=O)C2CN(C(=O)O[C@H]3CC[C@@H](C(C)C)CC3)C2)ccc1O [Example 24]

Row | Emax at 1 µM | SMILES
24 | 73% | CCC1(CC)CCC(OC(=O)N2CC[C@@H](C(=O)NCc3ccc(O)c(OC)c3)C2)CC1 [Example 33]
25 | 83% | COc1cc(CNC(=O)C2CCN(C(=O)O[C@@H]3CCC[C@H](C)C3)CC2)ccc1O [Example 9]
26 | 92% | COc1cc(CNC(=O)C2CCN(C(=O)O[C@@H]3C[C@H](C)C[C@H](C)C3)CC2)ccc1O [Example 12]
27 | 84% | COc1cc(CNC(=O)C2CN(C(=O)OC3CC(C)(C)CC(C)(C)C3)C2)ccc1O [Example 19]
28 | 68% | COc1cc(CNC(=O)[C@@H]2CCN(C(=O)OC3CCC(C)(C)CC3)C2)ccc1O [Example 31, 4,4-dimethylcyclohexyl (R)-3-(4-hydroxy-3-methoxybenzylcarbamoyl)-pyrrolidine-1-carboxylate]
29 | 80% | COc1cc(CNC(=O)C2CCN(C(=O)O[C@H]3CC[C@@H](C)CC3)CC2)ccc1O [Example 3]
30 | 91% | COc1cc(CNC(=O)C2CCN(C(=O)OCC3CCCCC3)CC2)ccc1O [Example 40]
31 | 72% | COc1cc(CNC(=O)C2CN(C(=O)Oc3ccccc3C(C)C)C2)ccc1O [Example 45, 2-isopropylphenyl 3-(4-hydroxy-3-methoxybenzylcarbamoyl)-azetidine-1-carboxylate]
32 | 80% | COc1cc(CNC(=O)C2CCN(C(=O)O[C@H]3CC[C@H](C)CC3)CC2)ccc1O [Example 4]
33 | 83% | COc1cc(CNC(=O)C2CCN(C(=O)Oc3ccccc3C(C)C)CC2)ccc1O [Example 41, 2-isopropylphenyl 4-(4-hydroxy-3-methoxybenzylcarbamoyl)-piperidine-1-carboxylate]
34 | 81% | CC[C@H]1CCCC[C@H]1OC(=O)N1CCC(C(=O)NCc2ccc(O)c(OC)c2)CC1 (relative stereo) [Example 13, cis-2-ethylcyclohexyl 4-(4-hydroxy-3-methoxybenzylcarbamoyl)-piperidine-1-carboxylate]
35 | 84% | COc1cc(CNC(=O)C2CCN(C(=O)O[C@H]3CC[C@@H](C(C)(C)C)CC3)CC2)ccc1O [Example 5]
36 | 83% | CCC1(CC)CCC(OC(=O)N2CC[C@H](C(=O)NCc3ccc(O)c(OC)c3)C2)CC1 [Example 29]
37 | 81% | CC[C@H]1CC[C@@H](OC(=O)N2CC[C@H](C(=O)NCc3ccc(O)c(OC)c3)C2)CC1 [Example 28]
38 | 72% | COc1cc(CNC(=O)[C@@H]2CCN(C(=O)O[C@H]3CC[C@@H](C(C)(C)C)CC3)C2)ccc1O [Example 34]
39 | 83% | CC[C@H]1CC[C@@H](OC(=O)N2CC(C(=O)NCc3ccc(O)c(OC)c3)C2)CC1 [Example 15]
40 | 71% | COc1cc(CNC(=O)C2CN(C(=O)O[C@H]3CC[C@H](C(C)C)CC3)C2)ccc1O [Example 25]
41 | 68% | COc1cc(CNC(=O)C2CCN(C(=O)Oc3cccc(C(C)C)c3)CC2)ccc1O [Example 43]
42 | 92% | COc1cc(CNC(=O)C2CCN(C(=O)O[C@H]3CCC[C@H](C)C3)CC2)ccc1O [Example 10]

Same assay, conditions: read-out: Value (%) when fluorescence intensity for capsaicin (1 μM) is 100%, 1 μM; rat dorsal root ganglion primary culture cells

Row | SMILES | Emax at 1 µM
43 | COc1cc(CNC(=O)C2CN(C(=O)O[C@H]3CC[C@H](C(C)(C)C)CC3)C2)ccc1O [Example 17] | 82%
44 | CC[C@H]1CC[C@@H](OC(=O)N2CCC(C(=O)NCc3ccc(O)c(OC)c3)CC2)CC1 [Example 1, cis-4-ethylcyclohexyl 4-(4-hydroxy-3-methoxybenzylcarbamoyl)-piperidine-1-carboxylate] | 87%
45 | COc1cc(CNC(=O)C2CCN(C(=O)O[C@@H]3CCCC[C@@H]3C)CC2)ccc1O [Example 11] | 94%
46 | COc1cc(CNC(=O)C2CCN(C(=O)O[C@H]3CCCC[C@H]3C)CC2)ccc1O [Example 38, (1S,2R)-2-methylcyclohexyl 4-(4-hydroxy-3-methoxybenzylcarbamoyl)-piperidine-1-carboxylate] | 97%
47 | COc1cc(CNC(=O)C2CCN(C(=O)O[C@H]3CCCC[C@@H]3C)CC2)ccc1O (relative stereo) [Example 47, (1S*,2S*)-2-methylcyclohexyl 4-(4-hydroxy-3-methoxybenzylcarbamoyl)-piperidine-1-carboxylate] | 85%
